Row | SMILES | melting point
1 | CC(C)n1nc(-c2sc(Nc3cccc4ccccc34)nc2-c2ccccc2)ccc1=O | 239 to 240 °C
2 | Cc1ccc(C)c(NC(=O)CN2CCN(c3ncccc3C#N)CC2)c1 | 106 to 108 °C
3 | CC(C)Cc1cccc(CCCn2c(=O)c3c(Cl)cc(Cl)cc3n(Cc3ccccc3)c2=O)c1 | 108 to 111 °C
4 | O=C(NN1CCCN(C(=O)OCc2ccccc2)CC1)c1ccc(F)cc1 | 116 to 118 °C
5 | COc1ccc2c(-c3ccc(Cl)cc3)noc2c1 | 148 to 149 °C
6 | COc1cc(CNC(C)=O)c(Cl)cc1O | > 300 °C
7 | CCCCCCCCCCn1c(=O)n(C2OC(CO)C(O)C2O)c2nc(N)[nH]c(=O)c21 (stereo not drawn) | 174 to 176 °C
8 | N=C(N)Nc1nc(CSCCNc2ncc(Cc3ccc(Cl)cc3)c(=O)[nH]2)cs1 | 205 to 207 °C
9 | O=[N+]([O-])C=C1NCCN1Cc1ccc(F)nc1 | 139 to 142 °C
10 | COC1CC2(C)C(CCC3C4CC(C)=C(C(C)=O)C4(C)CC(=O)C32)CC1O (stereo not drawn) | 184 to 186 °C
11 | C=CCOc1ccc(CC(NC(O)OC(C)(C)C)C(=O)NC(C(=O)NC(C=C)C(=O)OC)C(C)C)cc1 (stereo not drawn) | 104 to 106 °C
12 | CC1CC(=O)NN=C1c1ccc(NC(=NC#N)NCc2ccccc2)cc1 (stereo not drawn) | 228 to 229 °C
13 | N#CN1CCC2(CC1)CN(c1ccccc1Cl)c1ccccc12 | 158 to 160 °C
14 | CC(=O)c1ccc(Oc2ccc(C(C)=O)cc2)cc1 | 102 °C
15 | CSc1cc(-c2nc3ccccc3[nH]2)no1 | 179 to 181 °C
16 | Nc1nc(F)c(OC(F)F)c(Cl)n1 | 77 to 80 °C
17 | CN1CCC(OC2c3cccc(Cc4ccccc4)c3CCn3cc(-c4ccccc4)nc32)CC1 (stereo not drawn) | 66 °C
18 | COc1cccc2c1C(=O)N1CCC[C@H]1c1c(C(=O)OC(C)(C)C)ncn1-2 | 200 to 201 °C
19 | CCCCCCCCCCCCCC(=O)Nc1ccc(Cl)c(NC(=CC(=O)OCC)NNc2c(Cl)cc(Cl)cc2Cl)c1 | 91 to 93 °C
20 | CCOC(=O)C1=Cc2cc(Cl)c(Oc3ccc(OC)cc3)cc2OC1C(F)(F)F (stereo not drawn) | 116 to 117 °C
21 | N#Cc1ccc2[nH]cc(CCNC(=O)OCc3ccccc3)c2c1 | 128 to 129 °C
22 | CC(NC(=O)N(C)O)c1ccc(OCc2ccccc2)cc1 (stereo not drawn) | 105 to 106 °C
23 | CN1C(=O)C(C)(C)N=C(c2ccccc2Cl)c2cc(N)ccc21 | 85 to 110 °C
24 | O=S1(=O)N[C@@H](c2cccc(Br)c2)c2ccccc21 | 163 °C
25 | COC(=O)C1N=c2c(ccc3c2=CC=N3)O1 (stereo not drawn) | 207 to 208 °C

Row | SMILES | melting point
26 | CN1C(C(=O)Nc2ccccc2)=C(O)c2ccc3ccccc3c2S1(=O)=O | 273 to 274 °C
27 | CC(=O)Nc1csc(Br)n1 | 165 °C
28 | O=C(NCC(F)(F)F)c1cccc(-c2nc(=O)c3ccccc3s2)n1 | 243 to 244 °C
29 | CC(C)N1CCC(N2CCN(CCCN3CCOCC3)C2=C(C#N)C#N)CC1 | 109 to 110 °C
30 | CC(=O)CCNc1cc(C(=O)O)cc(S(N)(=O)=O)c1Oc1ccccc1 | 215 to 216 °C
31 | CS(=O)(=O)c1ccc(-c2nn(Cc3ccc(Cl)cc3Cl)c(=O)cc2-c2ccc(F)cc2)cc1 | 212 °C
32 | CCc1cc(Br)c2c(c1)NC(=O)C2=O | 219 to 220 °C
33 | Cc1nn(-c2ccccn2)c2nc3ccccc3c(C(N)=O)c12 | > 300 °C
34 | CO[C@]12C[C@@H](CN3CCC(O)(c4ccc(Cl)cc4)CC3)CN(C)[C@@H]1Cc1c[nH]c3cccc2c13 | 144 to 148 °C
35 | CC1=C(c2ccccc2)C(=O)N(C(C)(C)c2cccc(Cl)c2)CC1 | 117 to 118 °C
36 | Cn1c(C#N)c(-c2ccc(F)cc2)c2ncccc2c1=O | 258 to 259 °C
37 | O=C1c2ccccc2C(=O)N1CC(=O)N1c2ccc(Cl)cc2N(Cc2ccccc2)C(=O)[C@H]2CCC[C@H]21 (relative stereo) | 241 to 243 °C
38 | CCn1cc(Nc2nc(Br)cn(C)c2=O)cn1 | 138 to 140 °C
39 | CCOc1ccccc1C(=O)Nc1ccc(C(=O)N2Cc3cccn3Cc3ccccc32)cc1 | 160 to 176 °C
40 | CC(=O)N(C(C)=O)c1ccc(Br)c([N+](=O)[O-])c1OCc1ccccc1 | 148 °C
41 | COC(=O)CC(=O)CC(O)/C=C/c1c(-c2ccc(F)cc2)n(C(C)C)c(=O)c2ccccc12 (stereo not drawn) | 147 to 149 °C
42 | CC(C)(C)OC(=O)N[C@@H](Cc1ccccc1)C(=O)NC1CCC(Nc2cccc3c2C(=O)c2ccccc2C3=O)CC1 (stereo partly drawn) | 142 °C
43 | COc1ccc2[nH]cc(C3=CCN(C(=O)NCC4CCC(c5ccccc5)(N(C)C)CC4)CC3)c2c1 (stereo not drawn) | 98 to 104 °C
44 | CCCCC1N=CC(CSc2ccccc2C(=O)O)(Cc2ccc(C(=O)O)c3ccccc23)N1 (stereo not drawn) | 272 to 274 °C
45 | O=C(O)Cc1cccc2c(-c3ccc(Br)cc3)onc12 | 190 to 192 °C
46 | CN(C)Cc1cccc(-c2[nH]c3cccc4c3c2CCNC4=O)c1 | 222 to 225 °C
47 | Cc1nc(N)c2ncn(N(C)C)c2c1C | 205 to 207 °C
48 | C=CCc1c(O)ccc2ccc(=O)n(CC=C(C)C)c12 | 138 to 142 °C
49 | O=c1[nH]c2ccccc2n1C1CCN(C[C@@H]2CO[C@@H](c3ccc(F)cc3)C2)CC1 (relative stereo) | 154 to 155 °C
50 | COc1cc(N)c(Cl)cc1-c1noc(C2CCN(CC3CCCO3)CC2)n1 (stereo not drawn) | 148 °C

Row | SMILES | melting point
51 | O=[N+]([O-])c1ccc(Cl)cc1Nc1cccc(Cl)c1 | 112 °C
52 | Cc1cc(-c2ccc(Cl)c(Cl)c2)nc(-c2ccnc(-c3ccc(S(N)(=O)=O)s3)c2)n1 | 267 °C
53 | CC(=O)c1ccc(S(=O)(=O)Nc2cccnc2)cc1 | 182 to 183 °C
54 | Cc1c(=O)o[n-][n+]1CCSC12CC3CC(CC(C3)C1)C2 | 92 to 93 °C
55 | CCC1CCCC(C)C1=NC(C)COC (stereo not drawn) | 109 to 113 °C
56 | Nc1cc(F)cc2c(Cl)ccnc12 | 98 to 103 °C
57 | COc1cccc2c1CC(C(=O)O)N2C(=O)OC(C)(C)C (stereo not drawn) | 148 to 150 °C
58 | O=C(O)c1ccc(F)cc1Nc1ccc(I)cc1Cl | 238 to 239 °C
59 | CC(Oc1cccc(Cl)c1)C(=O)NCCO[N+](=O)[O-] (stereo not drawn) | 67 to 69 °C
60 | CCc1ccc(CCOc2ccc(CC(N)C(=O)O)cc2)nc1 (stereo not drawn) | 214 to 221 °C
61 | N#Cc1ccc(C2CC(=O)N(CC3CC3)Cc3cncn32)cc1 (stereo not drawn) | 178 to 180 °C
62 | COc1cc(Cl)c(-n2c(=O)cc(C(F)(F)F)n(C)c2=O)c2sc(Cl)nc12 | 185 to 187 °C
63 | CC(C)CC(C(=O)O)c1cc(Cl)c(-c2ccc(Cl)c(Cl)c2)c(OCC2CC2)c1 (stereo not drawn) | 118 to 119 °C
64 | OCC1OC(n2cnc3c(NC4CCCC4O)ncnc32)C(O)C1O (stereo not drawn) | 163 to 164 °C
65 | OC(Cn1ccnc1)(c1ccccc1)c1ccc(-c2ccccc2)cc1 (stereo not drawn) | 224 °C
66 | CN1C(=O)CCC2(C)C3CCC4(C)C(OC(=O)NCc5ccccc5)CCC4C3CCC12 (stereo not drawn) | 216 to 217 °C
67 | COc1cc(Nc2nccc(C(C)(C)C)n2)cc(OC)c1OC | 122 °C
68 | CC(=O)OC1CSC(Oc2cccc(-c3cccnc3C)c2)C(OC(C)=O)C1OC(C)=O (stereo not drawn) | 153 °C
69 | N#Cc1ccc2c(c1)Cc1cc(C#N)ccc1-2 | 282 to 284 °C
70 | O=C1C(=CO)COc2ccc(OCc3ccccc3)cc21 | 82 to 85 °C
71 | CCC(O)(CC)c1cc(C)c(-c2cccc(OCc3ccc(CO)c(CO)c3)c2C)c(C)c1 | 105 to 107 °C
72 | COc1ccc(CCCC(C)=O)cc1S(N)(=O)=O | 115 to 116 °C
73 | CCN1c2ncc(CCc3cnc4ccccc4c3)cc2C(=O)N(C)c2ccc(F)nc21 | 154 to 156 °C
74 | CN(C)C(=O)Nc1coc2ccccc2c1=O | 148 °C
75 | CCCCCOC(=O)NS(=O)(=O)CCc1cc(OCCCC)nn1Cc1ccc(Cl)cc1Cl | 91 to 93 °C

Row | SMILES | melting point
76 | c1ccc(CCCNc2ccc(-c3cc(-c4ccc(NCCCc5ccccc5)cc4)cc(-c4ccc(NCCCc5ccccc5)cc4)c3)cc2)cc1 | 105 °C
77 | Cc1oc(-c2ccccc2)nc1COc1ccccc1C=CC=Cc1nnn[nH]1 | 192 to 193 °C
78 | NNC1=NS(=O)(=O)c2cc(Cl)ccc21 | 277 °C
79 | NS(=O)(=O)c1ccc(-c2cccc(-c3nc(-c4ccc(Cl)cc4)cc(C(F)(F)F)n3)c2)s1 | 226 °C
80 | CCOC(=O)c1c(NCCC(=O)c2ccccc2)c2c(Cl)cc(Cl)cc2n1C(=O)OC(C)(C)C | 130 to 131 °C
81 | COC(=O)[C@@H](NC(=O)Nc1n[nH]c(=S)s1)c1ccccc1 | 137 to 139 °C
82 | CCSc1nc(=O)n(C(=O)NC)s1 | 131 °C
83 | Cc1ccc(S(=O)(=O)Nc2ccc3cccc(N4CCN(C)CC4)c3c2)cc1 | 180 °C
84 | CCCC(NS(=O)(=O)c1ccc(Cl)cc1)C(=O)Nc1ccc(CC(=O)OCC)cc1 (racemic) | 93 to 95 °C
85 | CCCCCC(=O)Nc1cccc2c1C1(COc3cc4c(cc31)OCCO4)C(=O)N2C (stereo not drawn) | 151 to 153 °C
86 | O=C(O)COc1cc2onc(-c3ccccc3F)c2cc1Br | 223 to 224 °C
87 | C=C1CC2C(=CCC3(C)C2CC(C)C3(O)C(C)=O)C2(C)CCC(=O)C=C12 (stereo not drawn) | 157 to 158 °C
88 | COC(=O)COc1ccc(SCc2cc(-c3ccc(Cl)cc3)on2)c2c1CCCO2 | 131 to 133 °C
89 | Cc1nc(-c2cccc3nc(N[C@@H]4CCc5ccccc54)ccc23)no1 | 105 °C
90 | CNCc1nc(-c2ncn3c2[C@@H]2CCN2C(=O)c2cc(F)ccc2-3)no1 | 155 to 160 °C
91 | CS(=O)(=O)N1CCN(S(=O)(=O)c2ccc(-c3cccs3)cc2)[C@@H](C(=O)NOC2CCCCO2)C1 (stereo partly drawn) | 194 to 195 °C
92 | Clc1ccccc1C=Nc1c2c(nc3ccccc13)CCCC2 | 165 to 166 °C
93 | O=[N+]([O-])c1cc(I)cc(CF)c1 | 50.5 to 51.5 °C
94 | C[C@@H](n1cnc2cc(F)ccc2c1=O)[C@](O)(Cn1cncn1)c1ccc(F)cc1F | 106 to 107 °C
95 | CCOCc1nc2c(N)nc3c(c2n1CCCCS(C)(=O)=O)CCCC3 | 170 to 171 °C
96 | COC(=O)NCC1CC(c2ccccc2)=NO1 (stereo not drawn) | 102 to 103 °C
97 | O=C(CN1C(=O)CC1S(=O)c1ccccc1)NCCCCCCc1ccc(Cl)cc1 (stereo not drawn) | 113 to 115 °C
98 | O=C(O)CCCCCCCn1c(-c2ccccc2)nc(-c2ccccc2Cl)c1-c1ccccc1Cl | 198 °C

— a melting point compilation (Tetko et al.; mined from patent text by program, amines drawn as free bases though some values may be those of a salt)
